Assay results published in US11337968B2, “Phenylquinoline compositions for treatment of ocular disorders and conditions” (The Board of Regents of the University of Oklahoma, priority 2016, dated 2022).
pEC50: −log10 of the molar value. Entries after “also recorded” stand apart in the source; their conditions may differ.

What was measured:
PPARα [1] = target: T1, PPARα (Homo sapiens, UniProt Q07869); assay: PPARα transcriptional activity in PPARα reporter Combo cells (luciferase); format: cell-based; parameters: host or cells: PPARα reporter Combo cells; settings: for PPARα transcriptional activity (luciferase), FIG. 1 and 2: 50 μM, PPARα reporter Combo cells; for PPARα transcriptional activity (luciferase), FIG. 1 and 2 / dose dependent effect on PPARα transcriptional activity, FIG. 3: 36 h; for dose dependent effect on PPARα transcriptional activity, FIG. 3: various concentrations up to 100 μM
T1 sequence (Q07869 1-468): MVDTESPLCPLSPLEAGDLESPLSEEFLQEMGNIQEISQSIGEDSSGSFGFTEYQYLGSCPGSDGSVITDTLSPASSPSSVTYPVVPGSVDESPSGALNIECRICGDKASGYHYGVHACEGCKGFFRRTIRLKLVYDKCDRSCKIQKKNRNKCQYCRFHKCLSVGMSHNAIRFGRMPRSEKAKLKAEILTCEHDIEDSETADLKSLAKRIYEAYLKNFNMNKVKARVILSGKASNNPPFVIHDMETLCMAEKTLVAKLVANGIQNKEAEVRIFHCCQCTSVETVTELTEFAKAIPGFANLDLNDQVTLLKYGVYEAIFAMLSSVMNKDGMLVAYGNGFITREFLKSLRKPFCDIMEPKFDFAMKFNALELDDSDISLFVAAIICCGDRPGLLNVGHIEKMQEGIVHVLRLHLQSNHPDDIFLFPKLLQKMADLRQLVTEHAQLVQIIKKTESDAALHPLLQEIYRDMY
Experimental: The PPARα reporter Combo cells were treated with the indicated compounds at concentrations of 50 μM for 36 h, and then luciferase activities were measured.
The PPARα reporter Combo cells were treated with indicated compounds at concentrations of 50 μM for 36 h, and then luciferase activities were measured.
Various phenylquinoline derivatives of the present disclosure were tested for their effects on PPARα transcriptional activity in PPARα reporter Combo cells, including NCI8 and compounds 1-13 as disclosed herein, as measured against the effect of Feno-FA.
Cells were treated with various compounds at concentrations of 50 μM for 36 h, after which luciferase activities were measured. […] Cells were treated with various compounds at concentrations of 50 μM for 36 h, after which luciferase activities were measured. […] The experiments were repeated as various increasing concentrations comparing the effects of Feno-FA (FIG. 4), NCI8 (FIG. 5), compound 2 (FIG. 6), and compound 8 (FIG. 7).

retinal leukostasis = assay: leukostasis assay in oxygen-induced retinopathy (OIR) model; format: in vivo, C57BL/6 mice; settings: OIR mice, 10 mg/kg/day i.p. P12 to P16, examined at P17, vs vehicle
[2] = test system: human retinal capillary endothelial cells (HRCEC); assay: tube formation in HRCEC; format: cell-based
[3] = test system: retinal precursor cells (R28); assay: TUNEL, palmitate-induced apoptosis in retinal precursor cells; format: cell-based
ICAM-1, MCP-1, TNF-α = assay: retinal levels of inflammatory factors by Western blotting in OIR model; format: in vivo, C57BL/6 mice; settings: OIR mice, 10 mg/kg/day i.p. P12 to P16, Western blotting
[4] = test system: human retinal capillary endothelial cells (HRCEC); assay: endothelial cell migration in HRCEC; format: cell-based
[5] = test system: retinal capillaries and pericytes; assay: retinal capillary degeneration and pericyte loss in streptozotocin-induced diabetic rats; format: in vivo; settings: i.p., 10 mg/kg/day, 3 weeks
[6] = test system: human retinal Müller cells (MIO-M1); assay: TUNEL, palmitate-induced apoptosis in Müller cells; format: cell-based
PPARα [7] = target: T1, PPARα; assay: luciferase-based promoter assay of PPARα activation
Experimental: The activation of PPARα by NCI8 was measured by luciferase-based promoter assay. […] Student's T-test was used for statistical analysis.

ARPE19 cells = assay: palmitate-induced cell death in ARPE19 cells; format: cell-based
VEGF = assay: expression of VEGF; settings: potency similar to or higher than fenofibrate

| SMILES | PPARα transcriptional activity (luciferase), FIG. 1 and 2 (PPARα [1]) | PPARα transcriptional activity at various increasing concentrations, FIG. 4-7 (PPARα [1]; compared with Feno-FA, NCI8, compound 8) | dose dependent effect on PPARα transcriptional activity, FIG. 3 (PPARα [1]) | number of adherent leukocytes in the retinal vasculature (retinal leukostasis) (retinal leukostasis) | HRCEC tube formation [2] | palmitate-induced apoptosis of retinal precursor cells [3] | retinal level of ICAM-1 (ICAM-1, MCP-1, TNF-α) | retinal level of MCP-1 (ICAM-1, MCP-1, TNF-α) | retinal level of TNF-α (ICAM-1, MCP-1, TNF-α) | HRCEC migration [4] | concentration range of concentration-dependent inhibition of endothelial cell migration [4] [µM] | pericyte loss (pericyte numbers) ([5]; diabetic rats) | retinal capillary degeneration (numbers of acellular capillaries in the retina) ([5]; streptozotocin-induced diabetic rats) | palmitate-induced apoptosis of human retinal Müller cells [6] | pEC50 (PPARα [7]) | PPARα transcriptional activity (PPARα [7]; luciferase-based promoter assay) | RPE cell death induced by palmitate (ARPE19 cells) | expression of VEGF (VEGF) |
| --- | --- | --- | --- | --- | --- | --- | --- | --- | --- | --- | --- | --- | --- | --- | --- | --- | --- | --- |
| COc1ccc(-c2cc(C(=O)O)c3ccccc3n2)cc1OC [Compound 2, 2-(3,4-dimethoxyphenyl) quinoline-4-carboxylic acid] | highest agonistic activity | greatest agonistic activity | greatest activity |  |  |  |  |  |  |  |  |  |  |  |  |  |  |  |
| O=C(O)c1cc(-c2ccccc2O)nc2ccccc12 [Compound 8, 2-(2-hydroxyphenyl) quinoline-4-carboxylic acid] | highest agonistic activity |  | greatest activity |  |  |  |  |  |  |  |  |  |  |  |  |  |  |  |
| Cc1c(Cl)ccc2c(C(=O)O)cc(-c3ccccc3)nc12 [NCI8, 7-chloro-8-methyl-2-phenylquinoline-4-carboxylic acid] |  |  |  | decreased; also recorded: significantly reduced | significantly inhibited; also recorded: higher potency than fenofibric acid | protective effect | downregulated; also recorded: significantly down-regulated | downregulated; also recorded: significantly down-regulated | downregulated; also recorded: significantly down-regulated | significantly inhibited | 50 to 200 | ameliorated; also recorded: significantly increased | ameliorated; also recorded: decreased | protective effect | 4.30 | activated PPARα transcriptional activity in a concentration-dependent manner; also recorded: Potent effects in enhancing transcriptional activities of PPARα | protection of RPE cells from cell death | inhibited |
